The source of these data is patent publication US5591714A, “Derivatives of A82846” (priority 1994, dated 1997).

The subject of one experiment is Escherichia coli EC14. Description: MIC, standard agar-dilution assay. The class given is cell-based. The procedure:
(§1) The formula I compounds have in vitro and in vivo activity against Gram-positive pathogenic bacteria. The MIC's were determined using a standard agar-dilution assays.

The next experiment relates to Escherichia coli N10. Put plainly: MIC, standard agar-dilution assay. It counts as cell-based. As for the experimental part: as §1
Another experiment relates to Escherichia coli TEM. Put plainly: MIC, standard agar-dilution assay. It counts as cell-based. The procedure: as §1
The test system of experiment [1] is Haemophilus influenzae 76. Put plainly: MIC, standard agar-dilution assay. The class given is cell-based. As for the experimental part:
as §1

Experiment [2] relates to Haemophilus influenzae C.L. Description: MIC, standard agar-dilution assay. The class given is cell-based. The procedure: as §1
Experiment [3] relates to Klebsiella pneumoniae KAE. Put plainly: MIC, standard agar-dilution assay. The class given is cell-based. The procedure: as §1
Experiment [4] relates to Klebsiella pneumoniae X26. Description: MIC, standard agar-dilution assay. It counts as cell-based. As for the experimental part: as §1
Experiment [5] concerns Klebsiella pneumoniae X68. Description: MIC, standard agar-dilution assay. It counts as cell-based. The procedure: as §1
The subject of experiment [6] is Staphylococcus aureus NRRL X1.1. Put plainly: MIC, standard agar-dilution assay. It counts as cell-based. The procedure:
as §1

For experiment [7], the system named is Staphylococcus aureus V41. Put plainly: MIC, standard agar-dilution assay. It counts as cell-based. As for the experimental part:
as §1

The subject of experiment [8] is Staphylococcus aureus X400. Description: MIC, standard agar-dilution assay. It counts as cell-based. The procedure:
as §1

Experiment [9] deals with Staphylococcus epidermidis 222. Description: MIC, standard agar-dilution assay. The class given is cell-based. The procedure:
as §1

Experiment [10] relates to Staphylococcus epidermidis EPI270. Description: MIC, standard agar-dilution assay. It counts as cell-based. The procedure: as §1
Experiment [11] relates to Streptococcus pyogenes C203. Description: MIC, standard agar-dilution assay. It counts as cell-based. The procedure:
as §1

Experiment [12] has as its system Staphylococcus aureus S13E. It counts as cell-based. As for the experimental part:
as §1

For experiment [13], the system named is Streptococcus pneumoniae Park 1. The class given is cell-based. As for the experimental part:
as §1

A further experiment relates to Enterococcus faecium X66. Put plainly: MIC, standard agar-dilution assay. The class given is cell-based. As for the experimental part:
as §1
^b Formerly Streptococcus faecium X66

Experiment [14] concerns Enterococcus faecalis 2041. Put plainly: MIC, standard agar-dilution assay. It counts as cell-based. As for the experimental part: as §1
^c Formerly Streptococcus faecalis 2041

The next experiment has as its system Staphylococcus aureus. Description: In vivo activity, experimentally infected mice (ED50). To be noted: Staphylococcus aureus infection; doses administered subcutaneously to mice 1 and 4 hours postinfection.
The next experiment has as its system Streptococcus pyogenes. The description is as above. To be noted: Streptococcus pyogenes infection; doses administered subcutaneously to mice 1 and 4 hours postinfection.
Another experiment deals with Streptococcus pneumoniae. The description is as above. To be noted: Streptococcus pneumoniae infection; doses administered subcutaneously to mice 1 and 4 hours postinfection.

Converted amounts (≈) assume the structure as drawn. Where only a bound is given, the exact number is not on record here.

`CN[C@H](CC(C)C)C(=O)N[C@H]1C(=O)N[C@@H](CC(N)=O)C(=O)N[C@H]2C(=O)N[C@H]3C(=O)N[C@H](C(=O)N[C@H](C(=O)O)c4cc(O)cc(O)c4-c4cc3ccc4O)[C@H](O[C@H]3C[C@](C)(N)[C@@H](O)[C@H](C)O3)c3ccc(cc3)Oc3cc2cc(c3O[C@@H]2O[C@H](CO)[C@@H](O)[C@H](O)[C@H]2O[C@H]2C[C@](C)(NCc3ccc(Br)cc3)[C@@H](O)[C@H](C)O2)Oc2ccc(cc2Cl)[C@H]1O` [Compound 18]: the MIC (in the experiment on Escherichia coli EC14; in the experiment on Escherichia coli N10; against Escherichia coli TEM; in [1]; in experiment [2]; in experiment [3]) was more than 128 µg/mL throughout. Moreover, the MIC in experiment [4] is more than 128 µg/mL; in experiment [5] it was more than 128 µg/mL; in experiment [6], 1 µg/mL (≈ 0.579 µM); in experiment [7] it was 1 µg/mL (≈ 0.579 µM); in experiment [8], 1 µg/mL (≈ 0.579 µM); in [9], “.5 µg/mL”. For the same compound, the MIC in [10] is 1 µg/mL (≈ 0.579 µM); in [11], “.125 µg/mL”; in [12] it was 1 µg/mL (≈ 0.579 µM); in experiment [13] it was “.25 µg/mL”; with Enterococcus faecium X66, 1 µg/mL (≈ 0.579 µM); in experiment [14] it was 1 µg/mL (≈ 0.579 µM). The results for the ED50 in the experiment with Staphylococcus aureus, in the experiment on Streptococcus pyogenes and with Streptococcus pneumoniae were 1.74 mg/kg/2, 0.15 mg/kg/2 and 0.25 mg/kg/2, respectively.
For the compound `CN[C@H](CC(C)C)C(=O)N[C@H]1C(=O)N[C@@H](CC(N)=O)C(=O)N[C@H]2C(=O)N[C@H]3C(=O)N[C@H](C(=O)N[C@H](C(=O)O)c4cc(O)cc(O)c4-c4cc3ccc4O)[C@H](O[C@H]3C[C@](C)(N)[C@@H](O)[C@H](C)O3)c3ccc(cc3)Oc3cc2cc(c3O[C@@H]2O[C@H](CO)[C@@H](O)[C@H](O)[C@H]2O[C@H]2C[C@](C)(NCCc3ccccc3)[C@@H](O)[C@H](C)O2)Oc2ccc(cc2Cl)[C@H]1O` [Compound 24], the MIC (against Escherichia coli EC14; in the experiment on Escherichia coli N10; against Escherichia coli TEM; in experiment [1]; in experiment [2]; in experiment [3]) was more than 128 µg/mL in each case. The MIC in experiment [4] is more than 128 µg/mL; in experiment [5] it was more than 128 µg/mL; in experiment [6], “.5 µg/mL”; in experiment [7], “.5 µg/mL”; in experiment [8] it was 1 µg/mL (≈ 0.602 µM); in experiment [9] it was “.5 µg/mL”. The MIC result in experiment [10] is “.5 µg/mL”; in [11] it was “.25 µg/mL”; in experiment [12], 1 µg/mL (≈ 0.602 µM); in [13], “.25 µg/mL”; in the experiment with Enterococcus faecium X66, “.5 µg/mL”; in experiment [14], “.5 µg/mL”. Further, the values for the ED50 in the experiment with Staphylococcus aureus, in the experiment on Streptococcus pyogenes and with Streptococcus pneumoniae were 0.72 mg/kg/2, 0.09 mg/kg/2 and 0.25 mg/kg/2, respectively.
On to `CCCCCCC(=O)N[C@@]1(C)C[C@H](O[C@H]2[C@H](Oc3c4cc5cc3Oc3ccc(cc3Cl)[C@@H](O)[C@@H](NC(=O)[C@@H](CC(C)C)NC)C(=O)N[C@@H](CC(N)=O)C(=O)N[C@H]5C(=O)N[C@H]3C(=O)N[C@H](C(=O)N[C@H](C(=O)O)c5cc(O)cc(O)c5-c5cc3ccc5O)[C@H](O[C@H]3C[C@](C)(N)[C@@H](O)[C@H](C)O3)c3ccc(cc3)O4)O[C@H](CO)[C@@H](O)[C@@H]2O)O[C@@H](C)[C@@H]1O` [Compound 27], for which the MIC (with Escherichia coli EC14; with Escherichia coli N10; in the experiment with Escherichia coli TEM; in experiment [1]; in experiment [2]; in experiment [3]) was more than 128 µg/mL throughout. For the same compound, the MIC in experiment [4] is more than 128 µg/mL; in experiment [5], more than 128 µg/mL; in experiment [6], 1 µg/mL (≈ 0.599 µM); in experiment [7], 1 µg/mL (≈ 0.599 µM); in [8] it was 1 µg/mL (≈ 0.599 µM); in [9], 2 µg/mL (≈ 1.2 µM). Besides, the MIC was 2 µg/mL (≈ 1.2 µM) in [10]; “.5 µg/mL” in [11]; 2 µg/mL (≈ 1.2 µM) in [12]; “.25 µg/mL” in experiment [13]; 2 µg/mL (≈ 1.2 µM) in the experiment on Enterococcus faecium X66; 2 µg/mL (≈ 1.2 µM) in [14]. Also, the figures for the ED50 with Staphylococcus aureus, in the experiment with Streptococcus pyogenes and with Streptococcus pneumoniae were more than 1.0 mg/kg/2, 0.5 mg/kg/2 and 0.71 mg/kg/2, respectively.
Consider `CCCCCN[C@@]1(C)C[C@H](O[C@H]2[C@H](Oc3c4cc5cc3Oc3ccc(cc3Cl)[C@@H](O[C@H]3C[C@](C)(N)[C@@H](O)[C@H](C)O3)[C@@H]3NC(=O)[C@H](NC(=O)[C@@H]5NC(=O)[C@H](CC(N)=O)NC(=O)[C@H](NC(=O)[C@@H](CC(C)C)NC)[C@H](O)c5ccc(c(Cl)c5)O4)c4ccc(O)c(c4)-c4c(O)cc(O)cc4[C@@H](C(=O)O)NC3=O)O[C@H](CO)[C@@H](O)[C@@H]2O)O[C@@H](C)[C@@H]1O` [Compound 34], for which the MIC (in the experiment on Escherichia coli EC14; in the experiment with Escherichia coli N10; against Escherichia coli TEM; in experiment [1]; in experiment [2]; in [3]) was more than 128 µg/mL throughout. Besides, the MIC is more than 128 µg/mL in [4]; more than 128 µg/mL in [5]; “.5 µg/mL” in experiment [6]; “.5 µg/mL” in experiment [7]; 1 µg/mL (≈ 0.601 µM) in experiment [8]; “.5 µg/mL” in experiment [9]. Further, the MIC in experiment [10] is 2 µg/mL (≈ 1.2 µM); in experiment [11] it was “.5 µg/mL”; in experiment [12] it was “.5 µg/mL”; in experiment [13], “.5 µg/mL”; with Enterococcus faecium X66, “.5 µg/mL”; in [14], 1 µg/mL (≈ 0.601 µM). The ED50 in the experiment on Staphylococcus aureus turned out to be 0.77 mg/kg/2; in the experiment with Streptococcus pyogenes, 0.44 mg/kg/2; in the experiment on Streptococcus pneumoniae, 0.44 mg/kg/2.
In the case of `CNC(CC(C)C)C(=O)NC1C(=O)NC(CC(N)=O)C(=O)NC2C(=O)NC3C(=O)NC(C(=O)NC(C(=O)O)c4cc(O)cc(O)c4-c4cc3ccc4O)C(OC3CC(C)(N)C(O)C(C)O3)c3ccc(c(Cl)c3)Oc3cc2cc(c3OC2OC(CO)C(O)C(O)C2OC2CC(C)(NCc3ccccc3)C(O)C(C)O2)Oc2ccc(cc2Cl)C1O` (stereo not drawn) [Compound 51], the MIC (with Escherichia coli EC14; with Escherichia coli N10; in the experiment with Escherichia coli TEM; in experiment [1]; in [2]; in experiment [3]) was more than 128 µg/mL each time. Further, the MIC was more than 128 µg/mL in experiment [4]; more than 128 µg/mL in experiment [5]; “.25 µg/mL” in experiment [6]; “.5 µg/mL” in experiment [7]; “.5 µg/mL” in [8]; “.5 µg/mL” in experiment [9]. Moreover, the MIC was 1 µg/mL (≈ 0.594 µM) in experiment [10]; “.25 µg/mL” in experiment [11]; “.25 µg/mL” in experiment [12]; “.125 µg/mL” in [13]; “.25 µg/mL” against Enterococcus faecium X66; “.5 µg/mL” in experiment [14]. The figures for the ED50 in the experiment on Staphylococcus aureus, in the experiment with Streptococcus pyogenes and in the experiment with Streptococcus pneumoniae were 0.34 mg/kg/2, 0.16 mg/kg/2 and 0.35 mg/kg/2, respectively.
On to `CNC(CC(C)C)C(=O)NC1C(=O)NC(CC(N)=O)C(=O)NC2C(=O)NC3C(=O)NC(C(=O)NC(C(=O)O)c4cc(O)cc(O)c4-c4cc3ccc4O)C(OC3CC(C)(N)C(O)C(C)O3)c3ccc(c(Cl)c3)Oc3cc2cc(c3OC2OC(CO)C(O)C(O)C2OC2CC(C)(NCc3ccccc3Cl)C(O)C(C)O2)Oc2ccc(cc2Cl)C1O` (stereo not drawn) [Compound 62], for which the MIC (with Escherichia coli EC14; against Escherichia coli N10; against Escherichia coli TEM; in experiment [1]; in [2]; in [3]) was more than 128 µg/mL throughout. Moreover, the MIC in [4] was more than 128 µg/mL; in experiment [5] it was more than 128 µg/mL; in [6] it was “.5 µg/mL”; in [7] it was “.5 µg/mL”; in [8], 1 µg/mL (≈ 0.582 µM); in experiment [9], “.5 µg/mL”. The MIC in experiment [10] was 1 µg/mL (≈ 0.582 µM); in experiment [11], “.125 µg/mL”; in experiment [12] it was 1 µg/mL (≈ 0.582 µM); in experiment [13] it was “.125 µg/mL”; in the experiment on Enterococcus faecium X66, “.25 µg/mL”; in experiment [14] it was “.5 µg/mL”. Further, the ED50 with Staphylococcus aureus was determined as 0.77 mg/kg/2; with Streptococcus pyogenes, 0.20 mg/kg/2; in the experiment on Streptococcus pneumoniae, 0.17 mg/kg/2.
